Results: US10028961B2, “Therapeutically active compounds and their methods of use” (AGIOS PHARMACEUTICALS, INC., priority 2013, dated 2018)
Where two headings read alike, the source gives them in different places.

Legend:
[1] = molecular target: IDH1 wt/IDH1 R132H heterodimer (Homo sapiens (Human), UniProt O75874, R132H); assay: In vitro assay for IDH1m R132H inhibitors, IDH1 wt/IDH1 R132H heterodimer, NADPH depletion (diaphorase/resazurin); format: biochemical
Experimental: The following describes the experimental procedures that can be used to obtain data on columns 2 and 4 of Table 4 and column 2 of Table 5.
In the primary reaction, the reduction of α-KG acid to 2-HG is accompanied by a concomitant oxidation of NADPH to NADP. The amount of NADPH remaining at the end of the reaction time is measured in a secondary diaphorase/resazurin reaction in which the NADPH is consumed in a 1:1 molar ratio with the conversion of resazurin to the highly fluorescent resorufin.
The mixture of compound, enzyme, and cofactor is pre-incubated at room temperature for 1 hr prior to the addition of alpha-ketoglutarate. To perform the secondary reaction, 10 uL of 1× buffer containing 36 μg/ml diaphorase and […] resazurin is added to the primary reaction and incubated for a further 5 minutes at 25° C. […] Compounds or compound dilutions are prepared in 100% DMSO concentration and diluted 1:50 into the final reaction. […] IC50s are determined.
IDH1 or IDH2 wildtype (wt) and mutant heterodimers are expressed and purified by methods known in the art. […] Co-expression of IDH1wt-his and IDH1R132C-flag is carried out in sf9 insect cells. Cells (25 g) are resuspended in 250 ml of 50 mM Tirs, 500 mM NaCl, pH7.4, at 4° C. with stirring. Cells are disrupted with 4 passes through an M-Y110 Micro fluidizer (Microfluidics) set to 500 psi, and then centrifuged at 22,000 rcf for 20 min at 4° C. The supernatant is harvested and loaded at 15 cm/h on a Histrap FF 5*1 ml column (GE) which is equilibrated with 50 mM Tirs, 500 mM NaCl, pH7.4. Host cell contaminants are removed by washing the column with equilibration buffer followed by equilibration buffer containing 20 mM imidazole and 60 mM imidazole to baseline. IDH1wt-his homodimer and IDH1wt-his/IDH1R132C-flag are eluted by equilibration buffer containing 250 mM imidazole. Fractions eluted by 250 mM imidazole are pooled together and loaded at 15 cm/h onto a column pre-packed with 10 ml ANTI-FLAG® M2 Affinity Gel (Sigma), the column is equilibrated with 50 mM Tris, 500 mM NaCl, pH7.4. After washing with equilibration buffer, IDH1wt-his/IDH1R132C-flag heterodimer is eluted by equilibration buffer containing flag peptide (0.2 mg/ml). Aliquots of IDH1wt-his/IDH1R132C-flag are flash frozen in liquid N2 and stored at −80° C. Same conditions are used for the purification of IDH1wt-his/IDH1R132H-flag.

[2] = system: U87MG pLVX-IDH2 R140Q-neo cells; assay: U87MG pLVX-IDH2 R140Q-neo cell based assay, 2-HG by LC-MS; conditions: Homo sapiens, U-87 MG
IDH2 R140Q = IDH2 R140Q (Homo sapiens (Human), UniProt P48735, R140Q); assay: In vitro assay for IDH2m R140Q inhibitors, cofactor depletion assay; format: biochemical; conditions: IDH2 R140Q enzyme
From the text: The following describes the experimental procedures used to obtain data on column 7 of Table 4.
The reaction is terminated by the addition of a second enzyme, diaphorase, and a corresponding substrate, resazurin. Diaphorase reduces resazurin to the highly fluorescent resorufin with the concomitant oxidation of NADPH to NADP, both halting the IDH2 reaction by depleting the available cofactor pool and facilitating quantitation of the amount of cofactor remaining after a specific time period through quantitative production of an easily detected fluorophore.
The test compound is then incubated for one hour at room temperature with the enzyme; before starting the IDH2 reaction with the addition of 10 μl of substrate mix containing 4 μM NADPH and 1.6 mM α-KG in the buffer described above. After a further 16 hours of incubation at room temperature, the reaction is halted and the remaining NADPH measured through conversion of resazurin to resorufin by the addition of 25 μl Stop Mix (36 μg/ml diaphorase enzyme and 60 μM resazurin; in buffer).

[3] = IDH1 wt/R132H heterodimer, NADPH/NADP, not saturated, read-out: IDH1 wt/R132H NADPH/NADP IC50 not saturated

IDH2 R140Q, sequence (P48735 40-452 R140Q): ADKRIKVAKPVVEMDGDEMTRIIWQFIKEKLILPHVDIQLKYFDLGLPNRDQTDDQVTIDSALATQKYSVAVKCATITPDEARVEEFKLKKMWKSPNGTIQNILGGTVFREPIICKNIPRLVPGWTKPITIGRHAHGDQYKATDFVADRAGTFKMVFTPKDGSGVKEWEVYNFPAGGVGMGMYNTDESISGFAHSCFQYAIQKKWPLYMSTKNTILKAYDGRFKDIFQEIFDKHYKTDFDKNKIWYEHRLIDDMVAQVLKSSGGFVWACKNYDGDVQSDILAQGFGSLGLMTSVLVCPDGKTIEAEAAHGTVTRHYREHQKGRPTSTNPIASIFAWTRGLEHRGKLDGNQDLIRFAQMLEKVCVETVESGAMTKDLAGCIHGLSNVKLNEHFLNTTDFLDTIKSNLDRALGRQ
IDH1 wt/IDH1 R132H heterodimer, sequence (O75874 whole entry R132H): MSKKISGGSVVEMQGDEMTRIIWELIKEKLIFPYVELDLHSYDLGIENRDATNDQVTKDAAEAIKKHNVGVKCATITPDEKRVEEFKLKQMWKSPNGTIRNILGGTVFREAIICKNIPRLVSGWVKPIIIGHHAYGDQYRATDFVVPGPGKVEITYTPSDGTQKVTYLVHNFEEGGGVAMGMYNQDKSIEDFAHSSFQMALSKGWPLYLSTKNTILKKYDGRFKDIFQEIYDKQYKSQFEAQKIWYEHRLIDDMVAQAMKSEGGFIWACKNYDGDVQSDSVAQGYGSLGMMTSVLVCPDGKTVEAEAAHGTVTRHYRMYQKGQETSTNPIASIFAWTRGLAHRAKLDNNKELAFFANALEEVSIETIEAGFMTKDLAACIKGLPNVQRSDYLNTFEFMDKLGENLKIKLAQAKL
IDH1 wt/IDH1 R132H heterodimer, sequence (O75874 whole entry, stated change not applied): as the sequence (O75874 whole entry R132H) above, with H132R counted along it

| Compound | IC50 [1, 3] | other results |
| --- | --- | --- |
| COC(=O)N1CCC(Nc2nc(NC3CCC(F)(F)C3)nc(-c3cccc(C(F)(F)F)n3)n2)C1 (stereo not drawn) [Compound 59] | < 50 nM | – |
| C[C@@H](Nc1nc(NC2Cc3ccccc3C2)nc(-c2cccc(C(F)(F)F)n2)n1)C1CC1 [Compound 60] | < 50 nM | – |
| CC(C)Nc1nc(NC2CCCCC2)nc(-c2ccncc2)n1 [Compound 62] | 50 to 100 nM | – |
| COCC(COC)Nc1nc(N[C@H](C)C2CC2)nc(-c2cccc(C(F)(F)F)n2)n1 [Compound 63] | 50 to 100 nM | – |
| C[C@@H](Nc1nc(N[C@H](C)C2CC2)nc(-c2cccc(Cl)c2)n1)C1CC1 [Compound 64] | 50 to 100 nM | – |
| C[C@@H](Nc1nc(N[C@H](C)C2CC2)nc(-c2ccc(Cl)cc2)n1)C1CC1 [Compound 65] | – | IDH1 wt/R132H NADPH/NADP IC50 not saturated ([1]; IDH1 wt/R132H heterodimer, NADPH/NADP, not saturated): No Fit |
| CC(C)Nc1nc(NC2CCCOC2)nc(-c2ccccc2)n1 (stereo not drawn) [Compound 69, N^2-isopropyl-6-phenyl-N^4-(tetrahydro-2H-pyran-3-yl)-1,3,5-triazine-2,4-diamine] | – | IC50 [2]: 100 to 1000 nM |
| C=CCCNc1nc(NCCC=C)nc(-c2ccccc2)n1 [Compound 70] | – | IC50 [2]: 50 to 100 nM |
| c1ccc(-c2nc(NC3C4COCC43)nc(NC3C4COCC43)n2)cc1 (stereo not drawn) [Compound 71] | – | IC50 [2]: 50 to 100 nM |
| Clc1cccc(-c2nc(NC3[C@H]4COC[C@@H]34)nc(NC3[C@H]4COC[C@@H]34)n2)n1 (stereo partly drawn) [Compound 72, N^2,N^4-di((1R,5S)-3-oxabicyclo[3.1.0]hexan-6-yl)-6-(6-chloropyridin-2-yl)-1,3,5-triazine-2,4-diamine] | – | IC50 (IDH2 R140Q): > 1000 nM; IC50 [2]: 50 to 100 nM |
| CC(C)(C)CNc1nc(NCC(C)(C)C)nc(-c2cccc(N)n2)n1 [Compound 73, 6-(6-aminopyridin-2-yl)-N^2,N^4-dineopentyl-1,3,5-triazine-2,4-diamine] | – | IC50 (IDH2 R140Q): < 50 nM; IC50 [2]: 50 to 100 nM |
| CC(C)CNc1nc(NCC(C)C)nc(-c2cccc(N)n2)n1 [Compound 74, 6-(6-aminopyridin-2-yl)-N^2,N^4-diisobutyl-1,3,5-triazine-2,4-diamine] | – | IC50 (IDH2 R140Q): < 50 nM; IC50 [2]: 50 to 100 nM |
| CC(C)CNc1nc(NC2CCOCC2)nc(-c2cccc(C(F)(F)F)n2)n1 [Compound 75] | – | IC50 (IDH2 R140Q): 50 to 100 nM; IC50 [2]: < 50 nM |
| C[C@@H](Nc1nc(N[C@H](C)C2CC2)nc(-c2ccccn2)n1)C1CC1 [Compound 93] | > 1000 nM | – |
| C[C@@H](Nc1nc(N[C@H](C)C2CC2)nc(-c2ccccc2Cl)n1)C1CC1 [Compound 94] | > 1000 nM | – |
| C[C@@H](Nc1nc(N[C@H](C)C2CC2)nc(-c2ccncc2)n1)C1CC1 [Compound 95] | > 1000 nM | – |
| CN1CCC(Nc2nc(NC3CCC(F)(F)C3)nc(-c3cccc(C(F)(F)F)n3)n2)C1 (stereo not drawn) [Compound 96] | > 1000 nM | – |
| COCCC(C)Nc1nc(N[C@H](C)C2CC2)nc(-c2cccc(C(F)(F)F)n2)n1 (stereo partly drawn) [Compound 233] | < 50 nM | – |
| C=Cc1cccc(-c2nc(N[C@H](C)C3CC3)nc(N[C@H](C)C3CC3)n2)n1 [Compound 240] | < 50 nM | – |
| FC1(F)CC2(CC(Nc3nc(Nc4ccnc(C(F)(F)F)c4)nc(-c4cccc(C(F)(F)F)n4)n3)C2)C1 [Compound 257] | – | IC50 (IDH2 R140Q): < 50 nM; IC50 [2]: < 50 nM |
| CC(C)(O)CNc1nc(Nc2ccnc(C3(C#N)CC3)c2)nc(-c2cccc(C(F)(F)F)n2)n1 [Compound 259] | 100 to 1000 nM | IC50 (IDH2 R140Q): < 50 nM; IC50 [2]: < 50 nM |
| C[C@@H](Nc1nc(N[C@H](C)C2CC2)nc(-c2cccc(C#N)n2)n1)C1CC1 [Compound 269] | 100 to 1000 nM | – |
| C[C@H](CO)Nc1nc(N[C@H](C)C2CC2)nc(-c2cccc(C(F)(F)F)n2)n1 [Compound 281] | 100 to 1000 nM | – |
| Cc1cccc(-c2nc(NC3CCC(F)(F)CC3)nc(NC3CCC(F)(F)CC3)n2)n1 [Compound 282] | 100 to 1000 nM | – |
| C#CCNc1nc(N[C@H](C)C2CC2)nc(-c2cccc(C(F)(F)F)n2)n1 [Compound 284] | 100 to 1000 nM | – |
| COC(=O)CCNc1nc(N[C@H](C)C2CC2)nc(-c2cccc(C(F)(F)F)n2)n1 [Compound 286] | 100 to 1000 nM | – |

| Compound | IC50 [1, 3] | other results |
| --- | --- | --- |
| OC1CCCC1Nc1nc(NC2CCCC2O)nc(-c2cccc(Cl)n2)n1 (stereo not drawn) [Compound 290] | 100 to 1000 nM | – |
| FC1(F)CCC(Nc2nc(Nc3cc4ccccc4[nH]3)nc(-c3cccc(C(F)(F)F)n3)n2)C1 (stereo not drawn) [Compound 291] | 100 to 1000 nM | – |
| COc1cccc(-c2nc(N[C@H](C)C3CC3)nc(N[C@H](C)C3CC3)n2)n1 [Compound 294] | 100 to 1000 nM | – |
| COCCOCC(C)Nc1nc(N[C@H](C)C2CC2)nc(-c2cccc(C(F)(F)F)n2)n1 (stereo partly drawn) [Compound 295] | 100 to 1000 nM | – |
| Fc1ccc([C@H]2C[C@H](Nc3nc(N[C@H]4C[C@H](c5ccc(F)cc5)C4)nc(-c4cccc(C(F)(F)F)n4)n3)C2)cc1 [Compound 299] | 100 to 1000 nM | – |
| C[C@@H](Nc1nc(N[C@H](C)C2CC2)nc(-c2cncc(C(F)(F)F)c2)n1)C1CC1 [Compound 300] | 100 to 1000 nM | – |
| C[C@@H](Nc1nc(NCC(C)(C)C(N)=O)nc(-c2cccc(C(F)(F)F)n2)n1)C1CC1 [Compound 303] | > 1000 nM | – |
| Cn1ccc(-c2nc(NC3CCC(F)(F)CC3)nc(NC3CCC(F)(F)CC3)n2)n1 [Compound 304] | > 1000 nM | – |
| CC(CN1CCOCC1)Nc1nc(N[C@H](C)C2CC2)nc(-c2cccc(C(F)(F)F)n2)n1 (stereo partly drawn) [Compound 306] | > 1000 nM | – |
| C[C@@H](Nc1nc(N[C@H](C)C2CC2)nc(-c2cccc(C(N)=O)n2)n1)C1CC1 [Compound 307] | > 1000 nM | – |
| COC(=O)c1cccc(-c2nc(N[C@H](C)C3CC3)nc(N[C@H](C)C3CC3)n2)n1 [Compound 310] | > 1000 nM | – |
| Cc1cnn(-c2nc(N[C@H](C)C3CC3)nc(N[C@H](C)C3CC3)n2)c1 [Compound 312] | > 1000 nM | – |
| Fc1ccc(N2CC(Nc3nc(NC4CCC(F)(F)C4)nc(-c4cccc(C(F)(F)F)n4)n3)C2)cc1 (stereo not drawn) [Compound 313] | > 1000 nM | – |
| FC1(F)CCC(Nc2nc(NC3CCC(F)(F)CC3)nc(-c3cc(Cl)ccn3)n2)CC1 [Compound 314] | > 1000 nM | – |
| Cn1c(Nc2nc(NC3CCC(F)(F)C3)nc(-c3cccc(C(F)(F)F)n3)n2)cc2ccccc21 (stereo not drawn) [Compound 316] | > 1000 nM | – |
| C[C@@H](Nc1nc(N[C@H](C)C2CC2)nc(-c2cccc(C#N)c2)n1)C1CC1 [Compound 320] | > 1000 nM | – |
| C[C@@H](Nc1nc(N[C@H](C)C2CC2)nc(-c2cccc(OC(F)(F)F)c2)n1)C1CC1 [Compound 322] | > 1000 nM | – |
| C[C@@H](Nc1nc(N[C@H](C)C2CC2)nc(-c2ccnc(C(F)(F)F)c2)n1)C1CC1 [Compound 323] | > 1000 nM | – |
| Cc1nc(-c2nc(NC3CCC(F)(F)CC3)nc(NC3CCC(F)(F)CC3)n2)co1 [Compound 324] | > 1000 nM | – |
| CN1CCC(Nc2nc(NC3CCC(F)(F)C3)nc(-c3cccc(C(F)(F)F)n3)n2)C1 (stereo not drawn) [Compound 326] | – | IC50 (IDH2 R140Q): > 1000 nM; IC50 [2]: > 1000 nM |
| C[C@@H](Nc1nc(N[C@H](C)C2CC2)nc(-c2cccc(O)n2)n1)C1CC1 [Compound 327] | > 1000 nM | – |
| Cc1cc(-c2nc(NC3CCC(F)(F)CC3)nc(NC3CCC(F)(F)CC3)n2)no1 [Compound 329] | > 1000 nM | – |
| FC1(F)CCC(Nc2nc(NC3CCC(F)(F)CC3)nc(-c3ccn[nH]3)n2)CC1 [Compound 330] | > 1000 nM | – |
| CC(CN1CCCCC1)Nc1nc(N[C@H](C)C2CC2)nc(-c2cccc(C(F)(F)F)n2)n1 (stereo partly drawn) [Compound 331] | > 1000 nM | – |
| N#CC1(c2cc(Nc3nc(NCC4CC4(F)F)nc(-c4cccc(C(F)(F)F)n4)n3)ccn2)CC1 (stereo not drawn) [Compound 362] | – | IC50 ([1]; IDH1 wt/IDH1 R132H heterodimer, 300 μM NADP (saturated), read-out: IDH1 wt/R132H NADPH/NADP IC50 saturated): 50 to 100 nM; IC50 (IDH2 R140Q): < 50 nM |
